The values that follow are results of earlier work, collected in US20210319872A1, “DRUG AND DEVICE COMBINATION PRODUCTS WITH IMPROVED SAFETY AND EFFICACY PROFILES” (priority 2016, published 2021).

Setting [1] is: subependymal giant cell astrocytoma.

Structures are written as SMILES. Read-outs that look alike come from different tables or passages of the source.

Regarding `CC(=O)O[C@H]1CC[C@@]2(C)C(=CC[C@@H]3[C@@H]2CC[C@]2(C)C(c4cccnc4)=CC[C@@H]32)C1` [Zytiga], for the setting “in vivo”, the ALT/SGPT level raised result is listed as “Hepatic: ALT/SGPT level raised (11.1% to 41.9%), AST/SGOT”; the AST/SGOT level raised result is “level raised (30.6% to 37.3%), Serum bilirubin raised (6.6%)”; the Adrenal insufficiency entry was “Endocrine metabolic: Adrenal insufficiency (0.5%), Hypokalemia”; the Alkaline phosphatase raised result is given as “Hepatic: Alkaline phosphatase raised (Greater than 20%)”. For the setting “in vivo”, the Anemia result is reported as “Hematologic: Anemia (Greater than 20%), Lymphocytopenia, All”; the Cardiac dysrhythmia entry was “Cardiovascular: Cardiac dysrhythmia (7.2%), Cardiorespiratory”; the Contusion result is on record as “Dermatologic: Contusion (13.3%), Flushing (19% to 22.3%)”; the Cough entry is recorded as “Respiratory: Cough (10.6% to 17.3%), Dyspnea (11.8%)”. Under “in vivo”, the Dyspnea result was “Respiratory: Cough (10.6% to 17.3%), Dyspnea (11.8%)”; the Fatigue result is recorded as “Other: Fatigue (39.1%)”; the Flushing entry was “Dermatologic: Contusion (13.3%), Flushing (19% to 22.3%)”; the Hypercholesterolemia entry is “Endocrine metabolic: Hypercholesterolemia (Greater than 20%),”. Further, under “in vivo”, the Hyperglycemia entry was “Hyperglycemia (56.6%), Hypertriglyceridemia (62.5%),”; the Hypertriglyceridemia entry is on record as “Hyperglycemia (56.6%), Hypertriglyceridemia (62.5%),”; the Hypokalemia result is recorded as “(17.2% to 28.3%)”; the Hypophosphatemia entry is “Hypophosphatemia (23.8%)”. For the setting “in vivo”, the Joint swelling entry was “Musculoskeletal: Joint swelling (29.5% to 30.3%)”; the “Lymphocytopenia, All grades” value was “grades (38.2%)”; the “Lymphocytopenia, Grade 3 or 4” value is given as “Hematologic: Lymphocytopenia, Grade 3 or 4 (8.7%)”; the Serum bilirubin raised result was “level raised (30.6% to 37.3%), Serum bilirubin raised (6.6%)”. Further, where the note is “in vivo”, the “Urinary tract infectious disease” value was “Renal: Urinary tract infectious disease (11.5%)”.
Regarding `CC(C)NCC(O)COc1ccc(CC(N)=O)cc1` (stereo not shown) [Atenolol (Tenormin)], for the setting “in vivo”, the Bradyarrhythmia result is “Cardiovascular: Bradyarrhythmia (3% to 18%), Cold extremities”; the Cold extremities entry is “(12%), Hypotension (4% to 25%)”; the Depression result was “Psychiatric: Depression (up to 12%)”; the Dizziness entry is reported as “Neurologic: Dizziness (13%)”. Also, for the setting “in vivo”, the Fatigue result is listed as “Other: Fatigue (up to 26%)”; the Hypotension result is reported as “(12%), Hypotension (4% to 25%)”; the Pulmonary embolism result is given as “Respiratory: Pulmonary embolism (1.2%)”.
As for `COc1ccc2c3c1O[C@H]1C(=O)CC[C@H]4[C@@H](C2)N(C)CC[C@]314.O=C(O)C(O)C(O)C(=O)O` [Hysingla ER], under “in vivo”, the Abdominal pain result is “Gastrointestinal: Abdominal pain (1% to less than 5%),”; the Constipation entry was “Constipation (3% to 11%), Nausea (7% to 10%), Vomiting (3% to”; the Difficulty swallowing entry is reported as “Gastrointestinal: Difficulty swallowing (less than 1%)”; the Dizziness result is “Neurologic: Dizziness (2% to 3%), Headache (2% to 4%),”. For the same compound, for the setting “in vivo”, the Fatigue result is on record as “Other: Fatigue (1% to 4%)”; the Headache result is “Neurologic: Dizziness (2% to 3%), Headache (2% to 4%),”; the Hypotension result was “Cardiovascular: Hypotension (less than 1%), Orthostatic”; the Opioid withdrawal result is “Opioid withdrawal (less than 1%)”. Also, for the setting “in vivo”, the Orthostatic hypotension result is “hypotension (less than 1%), Prolonged QT interval, Syncope”; the Peripheral edema entry is recorded as “Cardiovascular: Peripheral edema (1% to less than 5%%)”; the Pruritus entry is recorded as “Dermatologic: Pruritus (0% to less than 5%)”; the “Serious side effect, Cardiovascular” value is “hypotension (less than 1%), Prolonged QT interval, Syncope”. For the setting “in vivo”, the “Serious side effect, Neurologic” value is “Neurologic: Raised intracranial pressure, Seizure”; the “Serious side effect, Other” value is given as “Other: Drug withdrawal syndrome in neonate of dependent mother,”; the “Serious side effect, Respiratory” value was “Respiratory: Respiratory depression”; the Somnolence entry is “Somnolence (1% to 5%), Tremor (3%)”. In addition, under “in vivo”, the Spasm result was “Musculoskeletal: Spasm (1% to less than 5%)”; the Tremor entry is “Somnolence (1% to 5%), Tremor (3%)”; the Upper respiratory infection result is recorded as “Respiratory: Upper respiratory infection (1% to 3%)”; the “Urinary tract infectious disease” value is reported as “Renal: Urinary tract infectious disease (1% to 5%)”. Moreover, where the note is “in vivo”, the Xerostomia is 6%), Xerostomia (1% to less than 5%).
On to `CCCCNc1cc(C(=O)O)cc(S(N)(=O)=O)c1Oc1ccccc1` [Bumetanide (Bumex)], for which, under “in vivo”, the “Azotemia (incidence)” value was “Renal: Azotemia (10.6%)”; the “Cramp (incidence)” value is recorded as “Musculoskeletal: Cramp (1.1%)”; the “Dizziness (incidence)” value is on record as “Neurologic: Dizziness (1.1%), Headache (0.6%)”; the “Encephalopathy (incidence)” value is on record as “Neurologic: Encephalopathy (0.6%)”. Where the note is “in vivo”, the “Headache (incidence)” value was “Neurologic: Dizziness (1.1%), Headache (0.6%)”; the “Hyperuricemia (incidence)” value is on record as “Endocrine metabolic: Hyperuricemia (18.4%), Hypochloremia”; the “Hypochloremia (incidence)” value is reported as “(14.9%), Hypokalemia (14.7%)”; the “Hypokalemia (incidence)” value is listed as “(14.9%), Hypokalemia (14.7%)”. Besides, for the setting “in vivo”, the “Hypotension (incidence)” value was “Cardiovascular: Hypotension (0.8%)”, the “Nausea (incidence)” value was “Gastrointestinal: Nausea (0.6%)”, the “Serious side effect listed (incidence not given)” value is on record as “Dermatologic: Stevens-Johnson syndrome” and the “Thrombocytopenia (incidence)” value is listed as “Hematologic: Thrombocytopenia (0.2%)”.
Consider `CO[C@H]1C[C@@H]2CC[C@@H](C)[C@@](O)(O2)C(=O)C(=O)N2CCCC[C@H]2C(=O)O[C@H]([C@H](C)C[C@@H]2CC[C@@H](OCCO)[C@H](OC)C2)CC(=O)[C@H](C)/C=C(\C)[C@@H](O)[C@@H](OC)C(=O)[C@H](C)C[C@H](C)/C=C/C=C/C=C/1C` [Afinitor], for which, where the note is “PNET”, the Pulmonary embolism is on record as 2.5%. Moreover, under “Transplant”, the Angioedema result is recorded as “Other: Angioedema (Transplant, up to 6.8%), Sepsis (tumors less”; the Hemolytic uremic syndrome result is “Renal: Hemolytic uremic syndrome (Transplant, less than 1%),”; the Pericardial effusion entry is reported as “Cardiovascular: Pericardial effusion (Transplant, less than 1%)”; the “Thrombocytopenia, All grades” value is recorded as ≤ 10%. Under “Transplant”, the Thrombotic microangiopathy is < 1%), Thrombotic thrombocytopenic purpura (Transplant, less than and the Thrombotic thrombocytopenic purpura is listed as < 1%. Also, the Hypoalbuminemia entry (breast cancer) is given as “Hypoalbuminemia (breast cancer, 33%), Hypophosphatemia”. Further, for the setting “in vivo”, the Interstitial lung disease entry is “Respiratory: Interstitial lung disease (Less than 1%), Non-” and the Non-infectious pneumonia was ≤ 19%. Besides, for the setting “kidney transplant”, the “Anemia, All grades” value is reported as “transplant, 26%), Decreased lymphocyte count, all grades (tumors,”; the Constipation is given as 38%; the Cough was 7%; the Diarrhea result is listed as “kidney transplant, 19%; liver transplant, 19%), Nausea (tumors,”. For the same compound, under “kidney transplant”, the Dyslipidemia result was “Endocrine metabolic: Dyslipidemia (kidney transplant, 15%),”; the Fatigue is on record as 9%; the Fever was 19%; the Hypercholesterolemia is reported as 17%. In addition, where the note is “kidney transplant”, the Hyperlipidemia is given as 21%; the Hypertension is 30%; the Hypophosphatemia is given as 13%; the Impaired wound healing result is on record as “Immunologic: Impaired wound healing (kidney transplant, 35%;”. Moreover, where the note is “kidney transplant”, the “Increased glucose level, All grades” value is given as 12%; the Infectious disease is 62%; the Leukopenia is on record as 3%; the Nausea was 29%. Further, under “kidney transplant”, the Peripheral edema was 45%; the Serum creatinine raised is 18%; the Stomatitis is recorded as 8%; the Upper respiratory infection entry was “transplant, 16%)”. Also, where the note is “kidney transplant”, the “Urinary tract infectious disease” value is on record as 16%; kidney transplant, 22%) and the Vomiting is 15%. Where the note is “listed without frequency”, the “Serious side effect, Respiratory” value was “Pneumocystis pneumonia”. Also, where the note is “liver transplant”, the Diarrhea result is “kidney transplant, 19%; liver transplant, 19%), Nausea (tumors,”; the Fever result was “transplant, 13%)”; the Hyperlipidemia was 24%; the Hypertension was 17%. Besides, for the setting “liver transplant”, the Impaired wound healing entry is listed as “liver transplant, 11%)”; the Infectious disease is 50%; the Leukopenia is recorded as 12%; the Nausea is given as 14%. Moreover, where the note is “liver transplant”, the Peripheral edema is 18%. Moreover, under “renal angiomyolipoma”, the Amenorrhea result is “Reproductive: Amenorrhea (renal angiomyolipoma, 15%),”; the Menorrhagia result is given as “angiomyolipoma, 10%)”; the Otitis media entry is given as “Otic: Otitis media (renal angiomyolipoma, 6%)”; the Seizure result is “Neurologic: Seizure (renal angiomyolipoma, 5%)”. In addition, under “renal cell carcinoma”, the Hemorrhage is listed as 3%; the Pneumonia is 6%; the Renal failure entry was “Renal failure (renal cell carcinoma, 3%), Thrombosis of renal”. Further, under setting [1], the Mental disorder entry was “astrocytoma, 21%)” and the “Partial thromboplastin time increased” value is given as “giant cell astrocytoma, 72%), Thrombocytopenia, All grades”. For the setting “tumors”, the Pleural effusion was 7% and the Sepsis is < 1%.
On to `CCCC(C)C1(CC)C(=O)NC(=O)NC1=O` (stereo not shown) [Nembutal (pentobarbital)], for which, where the note is “in vivo”, the Agitation entry is reported as “Psychiatric: Agitation (less than 1%)”; the Apnea entry is on record as “Respiratory: Apnea (less than 1%), Hypoventilation (less than 1%)”; the Confusion result is “Neurologic: Confusion (less than 1%), Dizziness (less than 1%),”; the Dizziness entry is “Neurologic: Confusion (less than 1%), Dizziness (less than 1%),”. For the setting “in vivo”, the Hypoventilation entry is “Respiratory: Apnea (less than 1%), Hypoventilation (less than 1%)”; the Injury of liver entry is on record as “Hepatic: Injury of liver (less than 1%)”; the Megaloblastic anemia entry is “Hematologic: Megaloblastic anemia (less than 1%)”; the Somnolence result is “Somnolence (1% to 3%)”. Also, the Stevens-Johnson syndrome result (in vivo) was “Dermatologic: Stevens-Johnson syndrome (less than 1%)”.
Consider `CC(=O)O[C@]1(C(C)=O)CC[C@H]2[C@@H]3CCC4=CC(=O)CCC4=C3[C@@H](c3ccc(N(C)C)cc3)C[C@@]21C` [Ella], for which, for the setting “in vivo”, the Headache result is listed as “Neurologic: Headache (18% to 19%)”.
